Source: US12558334B2, “Controlled nutrient delivery to pancreatic islets using a novel mesoporous silica-based nanoparticle platform” (The Board of Trustees of the Leland Stanford Junior …, priority 2019, dated 2026)

test system: pancreatic islets; assay: Islet viability, Live/Dead assay; type: cell-based, C57BL/6 mice; settings: day 7; glutamine 10 mM
Protocol: (§1) All mice within this study were treated in accordance with the guidelines approved by the Institutional Animal Care and Use Committee (IACUC) at Stanford University. Animals were housed under conventional conditions having access to food and water ad libitum. Pancreatic islets were isolated from C57BL/6 mice (male, 6-8-week-old, Charles River Laboratories, USA), as previously described.^9 In brief, the common bile duct was cannulated with a 30G needle and the pancreas distended with 3 mL of cold collagenase solution (Fischer Scientific, USA). The pancreas was removed and islets isolated by digesting the pancreas at 37° C. for 10 min. The islets were purified using histopaque-density gradients. […]
After 7 days of incubation with PDG-MSNPs, the viability of islets was assessed using Live/Dead and 3-(4,5-Dimethylthiazol-2-yl)-2,5-diphenyltetrazolium bromide (MTT) assays. Islets were labeled using fluorescein diacetate (FDA; for live cells (green fluorescence), Thermo Fisher Scientific, USA) and propidium iodide (PI; for dead cells (red fluorescence), Thermo Fisher Scientific, USA) as the Live/Dead staining solution. […] A minimum of 8 islets per experimental group were analyzed using Image-J/FIJI to quantify live and dead fluorescence within islets and the percentage of live islet were presented.

Compound	islet viability (Live/Dead)
NC(=O)CC[C@H](N)C(=O)O [Glutamine, glutamine]	77.1±2.6%

test system: pancreatic islets; assay: Islet function, GSIS assay (insulin secretion); type: cell-based, C57BL/6 mice; settings: 7 days; glutamine 10 mM; 16.7 mM glucose
Protocol: as §1
Islets supplemented with PDG-MSNPs were cultured in a humidified incubator under normal conditions (37° C./5% CO2/20% O2). After 7 days of incubation with PDG-MSNPs, the ability of islets to secrete insulin was assessed by exposing them to low glucose (i.e. basal conditions) and high glucose (i.e. stimulated conditions) media (200 μL/well). […] The supernatants were collected at the end of incubation for both basal and stimulated condition and insulin levels were quantified using a mouse insulin ELISA kit (Mercodia Developing Diagnostics, USA). […]

Compound	insulin secretion following stimulation with high glucose medium
NC(=O)CC[C@H](N)C(=O)O [Glutamine, glutamine]	8.1 ± 0.3 ng/mL

test system: diabetic mice transplanted with islets; assay: Islet transplantation under kidney capsule of STZ diabetic mice, metabolic analysis; type: in vivo, C57BL/6 mice; settings: day 30 post-transplantation

Compound	non-fasting blood glucose level (BGL)
NC(=O)CC[C@H](N)C(=O)O [Glutamine, glutamine]	337 ± 84 mg/dL

same assay, conditions: fasting IPGTT

Compound	AUC0-20 min of IPGTT
NC(=O)CC[C@H](N)C(=O)O [Glutamine, glutamine]	26935 ± 1347 mg·min/dL

same assay, conditions: fasting IPGTT, glucose 2 g/kg i.p., peak at 30 min

Compound	IPGTT peak incremental value following glucose injection
NC(=O)CC[C@H](N)C(=O)O [Glutamine, glutamine]	238 ± 12 mg/dL

same assay, conditions: week 4

Compound	body weight
NC(=O)CC[C@H](N)C(=O)O [Glutamine, glutamine]	20.7 ± 0.9 g

test system: islets; assay: not given; settings: reported in the literature; cited from earlier work

Compound	Cyto-protective effects on islets	Decreased inflammation	Enhanced islet function	Enhanced islet survival
N[C@@H](CCS)C(=O)O [Homocysteine]	No	No	No	No
NCCCC[C@H](N)C(=O)O [Lysine]	No	No	Yes	No
CC[C@H](C)[C@H](N)C(=O)O [Isoleucine]	No	No	Yes	No
CSCC[C@H](N)C(=O)O [Methionine]	No	No	No	No
C[C@H](N)C(=O)O [Alanine]	No	No	Yes	Yes
N[C@@H](Cc1c[nH]c2ccccc12)C(=O)O [Tryptophan]	No	No	Yes	Yes
N[C@@H](CS)C(=O)O [Cysteine]	Yes	No	No	No
N=C(N)NCCC[C@H](N)C(=O)O [Arginine]	No	No	Yes	No
NC(=O)CC[C@H](N)C(=O)O [Glutamine, glutamine]	Yes	Yes	Yes	Yes
CC(C)C[C@H](N)C(=O)O [Leucine]	Yes	No	Yes	No
O=C(O)[C@@H]1CCCN1 [Proline]	No	No	Yes	No

test system: not given; assay: not given; settings: reported in the literature; cited from earlier work

Compound	Maintained function of various organs
N[C@@H](CCS)C(=O)O [Homocysteine]	No
NCCCC[C@H](N)C(=O)O [Lysine]	No
CC[C@H](C)[C@H](N)C(=O)O [Isoleucine]	No
CSCC[C@H](N)C(=O)O [Methionine]	No
C[C@H](N)C(=O)O [Alanine]	No
N[C@@H](Cc1c[nH]c2ccccc12)C(=O)O [Tryptophan]	No
N[C@@H](CS)C(=O)O [Cysteine]	No
N=C(N)NCCC[C@H](N)C(=O)O [Arginine]	No
O=C(O)[C@@H]1CCCN1 [Proline]	No
